Source: US12441732B2, “Potassium salt crystal form B of phosphodiesterase type 5 inhibitor, and preparation method and use therefor” (Guangzhou Huazhen Pharmaceutical Co., Ltd, priority 2019, dated 2025)
Where two headings read alike, the source gives them in different places.

What was measured:
PAH rats = test: Monocrotaline-induced pulmonary arterial hypertension (PAH) rats: RVSP, RVMI, pulmonary arterioles; format: in vivo, SD rats; conditions: for RVMI, RV/(LV+S) / RVSP: 3 weeks after MCT
Source text: SD rats were randomly divided into 8 groups, 15 rats/group: a normal control group (Vehicle); a PAH model group (MCT); a PAH+potassium salt crystal form B of WYQ mini-dose group (hereafter referring to as a mini-dose group); a PAH+potassium salt crystal form B of WYQ low-dose group (hereafter referring to as a low-dose group); a PAH+potassium salt crystal form B of WYQ medium-dose group (hereafter referring to as a medium-dose group); a PAH+potassium salt crystal form B of WYQ high-dose group (hereafter referring to as a high-dose group); a PAH+Sildenafil control group (hereafter referring to as a Sildenafil group); a PAH+Tadalafil control group (hereafter referring to as a Tadalafil group).
MCT was fully dissolved with 1M dilute HCl, diluted with double-distilled water, and adjusted to pH=7.2 with 3M NaOH, thereby preparing a MCT solution with a final concentration of 20 mg/ml.
The normal control group was injected subperitoneally with normal saline (50 mg/kg), and the rest of the groups were injected subperitoneally with MCT (50 mg/kg) at one time.
Mini-dose group: the potassium salt crystal form B of WYQ was prepared into a 0.4 mg/ml medicinal solution (ready to use) with normal saline, and administered by gavage at the dose of 2 mg·kg^−1d^−1;
Low-dose group: the potassium salt crystal form B of WYQ was prepared into a 1 mg/ml medicinal solution (ready to use) with normal saline, and administered by gavage at the dose of 5 mg·kg^−1d^−1;
Medium-dose group: the potassium salt crystal form B of WYQ was prepared into a 2 mg/ml medicinal solution (ready to use) with normal saline, and administered by gavage at the dose of 10 mg·kg^−1d^−1;
High-dose group: the potassium salt crystal form B of WYQ was prepared into a 4 mg/ml medicinal solution (ready to use) with normal saline, and administered by gavage at the dose of 20 mg·kg^−1d^−1;
Sildenafil group: Sildenafil was prepared into a 5 mg/ml medicinal solution (ready to use) with 0.5% sodium carboxymethyl cellulose, and administered by gavage at the dose of 25 mg·kg^−1d^−1;
Tadalafil group: Tadalafil was prepared into a 2 mg/ml medicinal solution (ready to use) with 0.5% sodium carboxymethyl cellulose, and administered by gavage at the dose of 10 mg·kg^−1d^−1.
The day of injection was the starting date of the experiment, and the administration was started after 7 days of modeling, once a day for 14 consecutive days.
After 3 weeks from the starting date of the experiment, RVSP data were collected on RM-6240E polygraph for each group of rats.
After 3 weeks from the starting date of the experiment, the animals were anesthetized, hemodynamically tested (RM-6240E polygraph), and sacrificed after manometry. The cardiopulmonary tissues were immediately dissected, and the right and left atria and great vessels were cut off along the atrioventricular junction with ophthalmic scissors to separate the right ventricle (RV) and left ventricular wall plus septum (LV+S), which was absorbed water with filter paper and weighed respectively, and RV/(LV+S), i.e., RVMI was calculated.
After 3 weeks from the starting date of the experiment, rats were heparinized with heparin (50 IU/100 g, intraperitoneal injection) for 5 min. The animals were anesthetized by injection of 20% urethane solution (0.5 ml/100 g), and the blood pressure indexes were detected and recorded.
The heart was dissected, the right ventricular wall was separated, and the left ventricle and the septum were separated, which were absorbed water with filter paper and weighed respectively to calculate the right ventricular hypertrophy index.
The lungs were dissected, wherein the right lung was ligated, and the left lung lobe was perfused with a fixative (4% paraformaldehyde) and then fixed in the fixative, dehydrated by ethanol gradient, allowed to become transparent by using xylene, immersed in wax, embedded in paraffin, sectioned (4 μm), stained with hematoxylin-eosin (HE), sealed with neutral gum and then observed under a microscope. […]

[1] = Solid-state stability test (one week, open); format: physicochemical; conditions: for HPLC purity: Purity after placement / Purity after placement/Starting purity / Crystal form change: open, one week; for Crystal form change: XRPD
Protocol: The solid-state stability of the potassium salt crystal form B prepared in Embodiment 1 was tested, in which 5.22 mg of potassium salt crystal form B samples were weighed and left open at 25° C./60% RH, and 5.19 mg of potassium salt crystal form B samples were weighed and left open at 40° C./75% RH. After one week, all samples were subjected to XRPD characterization (see XRPD parameter settings in Table 1) and HPLC purity test (Agilent 1100) to detect changes in crystal form and purity, wherein HPLC purity test parameters were shown in Table 6. Meanwhile, 4.59 mg of a compound WYQ sample was weighed and left open at 25° C./60% RH, and 5.11 mg of the compound WYQ sample was weighed and left open at 40° C./75% RH. The solid-state stability of these samples were performed under the same conditions for comparative reference.

[2] = Dynamic solubility test in water, SGF, FaSSIF, FeSSIF at 37° C.; format: physicochemical; conditions: for solubility at 1 h / solubility at 4 h / solubility at 24 h: read-out: solubility (S)
[3] = high-dose 20 mg·kg^−1d^−1 gavage once a day for 14 days
[4] = low-, medium- and high-dose groups (5, 10, 20 mg·kg^−1d^−1)
[5] = low-dose 5 mg·kg^−1d^−1 gavage once a day for 14 days
[6] = medium-dose 10 mg·kg^−1d^−1 gavage once a day for 14 days
[7] = mini-dose 2 mg·kg^−1d^−1 gavage once a day for 14 days
[8] = both test conditions (25° C./60% RH, 40° C./75% RH)

For CCCCOC(=O)[N-]S(=O)(=O)c1cccc(-c2nc3c(CCC)nn(C)c3c(=O)[nH]2)c1.[K+] [potassium salt crystal form B], the “RVMI, RV/(LV+S)” value (PAH rats; [3]) was 34.6±19%, the RVSP (PAH rats; [3]) was 29.8±1.6 mmHg and the “WT % of pulmonary arterioles vs PAH model group” value (PAH rats; [4]) was “decreased and improved significantly”. For the same compound, the “tunica media thickness of pulmonary arterioles vs PAH model group” value (PAH rats; [4]) was “decreased and improved significantly”, the “RVMI, RV/(LV+S)” value (PAH rats; [5]) was 40.6±2.7% and the RVSP (PAH rats; [5]) was 47.6±1.9 mmHg. The “RVMI, RV/(LV+S)” value (PAH rats; [6]) was 38.7±2.1%, the RVSP (PAH rats; [6]) was 40.7±1.5 mmHg and the “RVMI, RV/(LV+S)” value (PAH rats; [7]) was 42.8±2.1%. The RVSP (PAH rats; [7]) was 56.2±0.5 mmHg, the “HPLC purity: Purity after placement” value ([1]; 25° C./60% RH) was 98.62 area % and the “Purity after placement/Starting purity” value ([1]; 25° C./60% RH) was 99.9%. For the same compound, the Crystal form change ([1]; 25° C./60% RH) was “unchanged”, the “HPLC purity: Purity after placement” value ([1]; 40° C./75% RH) was 98.51 area % and the “Purity after placement/Starting purity” value ([1]; 40° C./75% RH) was 99.8%. The Crystal form change ([1]; 40° C./75% RH) was “unchanged”, the “change in purity after one week of placement” value [1, 8] was “no significant change” and the “change in the crystal form after one week of placement” value [1, 8] was “no change”. The “crystal form change after XRPD assay (FC)” value (from here on “crystal form change … (FC)”) ([2]; FaSSIF, 1 h) was “yes”, the pH ([2]; FaSSIF, 1 h) was 6.8 and the “crystal form change … (FC)” value ([2]; FaSSIF, 4 h) was “yes”. For the same compound, the pH ([2]; FaSSIF, 4 h) was 6.8, the “crystal form change … (FC)” value ([2]; FaSSIF, 24 h) was “yes” and the pH ([2]; FaSSIF, 24 h) was 6.8. For the same compound, the “crystal form change … (FC)” value ([2]; FeSSIF, 1 h) was “yes”, the pH ([2]; FeSSIF, 1 h) was 5.5 and the “crystal form change … (FC)” value ([2]; FeSSIF, 4 h) was “yes”. For the same compound, the pH ([2]; FeSSIF, 4 h) was 5.5, the “crystal form change … (FC)” value ([2]; FeSSIF, 24 h) was “yes” and the pH ([2]; FeSSIF, 24 h) was 5.5. For the same compound, the “crystal form change … (FC)” value ([2]; SGF, 1 h) was “yes”, the pH ([2]; SGF, 1 h) was 7.5 and the “crystal form change … (FC)” value ([2]; SGF, 4 h) was “yes”. The pH ([2]; SGF, 4 h) was 7.3, the “crystal form change … (FC)” value ([2]; SGF, 24 h) was “yes” and the pH ([2]; SGF, 24 h) was 7.7. For the same compound, the solubility at 1 h ([2]; fasted-state simulated intestinal fluid (FaSSIF), thermodynamic from solid, FaSSIF, 1 h) was 10700 µg/mL, the solubility at 4 h ([2]; fasted-state simulated intestinal fluid (FaSSIF), thermodynamic from solid, FaSSIF, 4 h) was 9500 µg/mL and the solubility at 24 h ([2]; fasted-state simulated intestinal fluid (FaSSIF), thermodynamic from solid, FaSSIF, 24 h) was 9800 µg/mL. It also gave a solubility at 1 h ([2]; fed-state simulated intestinal fluid (FeSSIF), thermodynamic from solid, FeSSIF, 1 h) of 400 µg/mL, a solubility at 4 h ([2]; fed-state simulated intestinal fluid (FeSSIF), thermodynamic from solid, FeSSIF, 4 h) of 430 µg/mL and a solubility at 24 h ([2]; fed-state simulated intestinal fluid (FeSSIF), thermodynamic from solid, FeSSIF, 24 h) of 430 µg/mL. For the same compound, the solubility at 1 h ([2]; simulated gastric fluid (SGF), simulated gastric fluid, thermodynamic from solid, SGF, 1 h) was 6800 µg/mL, the solubility at 4 h ([2]; simulated gastric fluid (SGF), simulated gastric fluid, thermodynamic from solid, SGF, 4 h) was 7000 µg/mL and the solubility at 24 h ([2]; simulated gastric fluid (SGF), simulated gastric fluid, thermodynamic from solid, SGF, 24 h) was 7700 µg/mL. For the same compound, the solubility at 1 h ([2]; thermodynamic from solid, water, 1 h) was 12500 µg/mL, the solubility at 4 h ([2]; thermodynamic from solid, water, 4 h) was 13100 µg/mL and the solubility at 24 h ([2]; thermodynamic from solid, water, 24 h) was 12900 µg/mL. For the same compound, the solubility ([2]; thermodynamic from solid, water, read-out: solubility in water (the highest)) was ≤ 12900 µg/mL, the “crystal form change … (FC)” value ([2]; water, 1 h) was “weak” and the pH ([2]; water, 1 h) was 7.6. For the same compound, the “crystal form change … (FC)” value ([2]; water, 4 h) was “weak”, the pH ([2]; water, 4 h) was 7.4 and the “crystal form change … (FC)” value ([2]; water, 24 h) was “weak”. The pH ([2]; water, 24 h) was 7.4.
